Assay results: US6737383B1, “Herbicidal oxadiazolidines” (priority 1999, dated 2004)

Assays:
[1] = test system: bedstraw; assay: Test B pre/postemergence bedstraw; type: in vivo, Galium aparine; conditions: for Bedstraw plant response rating: scale of 0 to 10 where 0 is no effect and 10 is complete control
Summary of the method: (§1)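 Herbicidal effect was estimated by eye on a ten-point control scale after plants spent twelve to sixteen days in a greenhouse following soil or foliar treatment. Foliar sprays targeted plants at one to four leaves; all doses were formulated in a non-phytotoxic solvent with surfactant.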

[2] = test system: blackgrass; assay: Test B pre/postemergence blackgrass; type: in vivo, Alopecurus myosuroides; conditions: for Blackgrass plant response rating: scale of 0 to 10 where 0 is no effect and 10 is complete control
Summary of the method: as §1

[3] = test system: surinam grass; assay: Test B pre/postemergence surinam grass; type: in vivo, Brachiaria decumbens; conditions: for B. signalgrass plant response rating: scale of 0 to 10 where 0 is no effect and 10 is complete control
Summary of the method: as §1

[4] = test system: corn; assay: Test B pre/postemergence corn; type: in vivo, Zea mays; conditions: for Corn plant response rating: scale of 0 to 10 where 0 is no effect and 10 is complete control
Summary of the method: as §1

[5] = test system: crabgrass; assay: Test B pre/postemergence crabgrass; type: in vivo, Digitaria sanguinalis; conditions: for Crabgrass plant response rating: scale of 0 to 10 where 0 is no effect and 10 is complete control
Summary of the method: as §1

[6] = test system: giant foxtail; assay: Test B pre/postemergence giant foxtail; type: in vivo, Setaria faberii; conditions: for Giant foxtail plant response rating: scale of 0 to 10 where 0 is no effect and 10 is complete control
Summary of the method: as §1

[7] = test system: morningglory; assay: Test B pre/postemergence morningglory; type: in vivo, Ipomoea hederacea; conditions: for Morningglory plant response rating: scale of 0 to 10 where 0 is no effect and 10 is complete control
Summary of the method: as §1

[8] = test system: pigweed; assay: Test B pre/postemergence pigweed; type: in vivo, Amaranthus retroflexus; conditions: for Redroot pigweed plant response rating: scale of 0 to 10 where 0 is no effect and 10 is complete control
Summary of the method: as §1

[9] = test system: rape; assay: Test B pre/postemergence rape; type: in vivo, Brassica napus; conditions: for Rape plant response rating: scale of 0 to 10 where 0 is no effect and 10 is complete control
Summary of the method: as §1

[10] = test system: soybean; assay: Test B pre/postemergence soybean; type: in vivo, Glycine max; conditions: for Soybean plant response rating: scale of 0 to 10 where 0 is no effect and 10 is complete control
Summary of the method: as §1

[11] = test system: velvetleaf; assay: Test B pre/postemergence velvetleaf; type: in vivo, Abutilon theophrasti; conditions: for Velvetleaf plant response rating: scale of 0 to 10 where 0 is no effect and 10 is complete control
Summary of the method: as §1

[12] = test system: wheat; assay: Test B pre/postemergence wheat; type: in vivo, Triticum aestivum; conditions: for Wheat plant response rating: scale of 0 to 10 where 0 is no effect and 10 is complete control
Summary of the method: as §1

[13] = test system: wild oat; assay: Test B pre/postemergence wild oat; type: in vivo, Avena fatua; conditions: for Wild oats plant response rating: scale of 0 to 10 where 0 is no effect and 10 is complete control
Summary of the method: as §1

[14] = test system: purple nutsedge; assay: Test B pre/postemergence purple nutsedge; type: in vivo, Cyperus rotundus; conditions: for Nutsedge plant response rating: scale of 0 to 10 where 0 is no effect and 10 is complete control
Summary of the method: as §1

[15] = test system: rice; assay: Test B flood test rice; type: in vivo, Oryza sativa
Summary of the method: (§2)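 Plants were grown to the 2-leaf stage before treatment with test chemical, then held in a greenhouse for twelve to sixteen days. Injury was visually rated against untreated controls on a 0–10 scale, where 0 is no effect and 10 is complete control.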

[16] = test system: duck salad; assay: Test B flood test duck salad; type: in vivo, Heteranthera limosa
Summary of the method: as §2

[17] = Postemergence, Rate 125 g/ha, scale 0 to 10, 0 is no effect, 10 is complete control
[18] = Postemergence, Rate 250 g/ha, scale 0 to 10, 0 is no effect, 10 is complete control
[19] = Preemergence, Rate 62 g/ha, scale 0 to 10 (0 no effect, 10 complete control)
[20] = Rate 500 g/ha, Postemergence, scale 0 to 10, 0 no effect, 10 complete control
[21] = Rate 62 g/ha, flood test species, Pre-emergence, visual evaluation after twelve to sixteen days
[22] = Rate 125 g/ha, under heading Pre-emergence, flood test species, visual evaluation after twelve to sixteen days
[23] = Rate 250 g/ha, Pre-emergence, flood-test species, scale 0 to 10, 0 is no effect, 10 is complete control
[24] = Rate 500 g/ha, Pre-emergence, flood test species, scale 0 to 10 (0 no effect, 10 complete control)

Structure (SMILES): CCOc1nc(C(F)(F)F)c(Cn2c(=O)on(C(=O)N(c3ccc(F)cc3)C(C)C)c2=O)s1 [Compound 381]
- Plant response rating, Bedstraw [1, 17]: 0
- Plant response rating, Bedstraw [1, 18]: 0
- Plant response rating, Bedstraw [1, 19]: 0
- Bedstraw plant response rating (0 to 10 scale) ([1]; Preemergence, Rate 125 g/ha): 0
- Bedstraw plant response rating ([1]; Preemergence, Rate 250 g/ha): 0
- Bedstraw plant response rating ([1]; Preemergence, Rate 500 g/ha): 0
- Bedstraw plant response rating ([1]; Rate 62 g/ha, Postemergence): 0
- Plant response rating, Bedstraw [1, 20]: 0
- Plant response rating, Blackgrass [2, 17]: 0
- Plant response rating, Blackgrass [2, 18]: 0
- Plant response rating, Blackgrass [2, 19]: 0
- Blackgrass plant response rating (0 to 10 scale) ([2]; Preemergence, Rate 125 g/ha): 0
- Blackgrass plant response rating ([2]; Preemergence, Rate 250 g/ha): 0
- Blackgrass plant response rating ([2]; Preemergence, Rate 500 g/ha): 2
- Blackgrass plant response rating ([2]; Rate 62 g/ha, Postemergence): 0
- Plant response rating, Blackgrass [2, 20]: 0
- Plant response rating, B. signalgrass [3, 17]: 0
- Plant response rating, B. signalgrass [3, 18]: 0
- Plant response rating, B. signalgrass [3, 19]: 0
- B. signalgrass plant response rating (0 to 10 scale, 0 is no effect, 10 is complete control) ([3]; Preemergence, Rate 125 g/ha): 0
- B. signalgrass plant response rating ([3]; Preemergence, Rate 250 g/ha): 0
- B. signalgrass plant response rating ([3]; Preemergence, Rate 500 g/ha): 0
- B. signalgrass plant response rating ([3]; Rate 62 g/ha, Postemergence): 0
- Plant response rating, B. signalgrass [3, 20]: 0
- Plant response rating, Corn [4, 17]: 0
- Plant response rating, Corn [4, 18]: 0
- Plant response rating, Corn [4, 19]: 0
- Corn plant response rating (0 to 10 scale) ([4]; Preemergence, Rate 125 g/ha): 0
- Corn plant response rating ([4]; Preemergence, Rate 250 g/ha): 0
- Corn plant response rating ([4]; Preemergence, Rate 500 g/ha): 2
- Corn plant response rating ([4]; Rate 62 g/ha, Postemergence): 0
- Plant response rating, Corn [4, 20]: 0
- Plant response rating, Crabgrass [5, 17]: 0
- Plant response rating, Crabgrass [5, 18]: 0
- Plant response rating, Crabgrass [5, 19]: 0
- Crabgrass plant response rating (0 to 10 scale) ([5]; Preemergence, Rate 125 g/ha): 0
- Crabgrass plant response rating ([5]; Preemergence, Rate 250 g/ha): 3
- Crabgrass plant response rating ([5]; Preemergence, Rate 500 g/ha): 9
- Crabgrass plant response rating ([5]; Rate 62 g/ha, Postemergence): 0
- Plant response rating, Crabgrass [5, 20]: 0
- Plant response rating, Giant foxtail [6, 17]: 0
- Plant response rating, Giant foxtail [6, 18]: 0
- Plant response rating, Giant foxtail [6, 19]: 0
- Giant foxtail plant response rating (0 to 10 scale) ([6]; Preemergence, Rate 125 g/ha): 0
- Giant foxtail plant response rating ([6]; Preemergence, Rate 250 g/ha): 5
- Giant foxtail plant response rating ([6]; Preemergence, Rate 500 g/ha): 9
- Giant foxtail plant response rating ([6]; Rate 62 g/ha, Postemergence): 0
- Plant response rating, Giant foxtail [6, 20]: 0
- Plant response rating, Morningglory [7, 17]: 2
- Plant response rating, Morningglory [7, 18]: 2
- Plant response rating, Morningglory [7, 19]: 0
- Morningglory plant response rating (0 to 10 scale) ([7]; Preemergence, Rate 125 g/ha): 0
- Morningglory plant response rating ([7]; Preemergence, Rate 250 g/ha): 0
- Morningglory plant response rating ([7]; Preemergence, Rate 500 g/ha): 0
- Morningglory plant response rating ([7]; Rate 62 g/ha, Postemergence): 2
- Plant response rating, Morningglory [7, 20]: 7
- Plant response rating, Redroot pigweed [8, 17]: 0
- Plant response rating, Redroot pigweed [8, 18]: 0
- Plant response rating, Redroot pigweed [8, 19]: 0
- Redroot pigweed plant response rating (0 to 10 scale) ([8]; Preemergence, Rate 125 g/ha): 0
- Redroot pigweed plant response rating ([8]; Preemergence, Rate 250 g/ha): 0
- Redroot pigweed plant response rating ([8]; Preemergence, Rate 500 g/ha): 0
- Redroot pigweed plant response rating ([8]; Rate 62 g/ha, Postemergence): 0
- Plant response rating, Redroot pigweed [8, 20]: 2
- Plant response rating, Rape [9, 17]: 0
- Plant response rating, Rape [9, 18]: 0
- Plant response rating, Rape [9, 19]: 0
- Rape plant response rating (0 to 10 scale) ([9]; Preemergence, Rate 125 g/ha): 0
- Rape plant response rating ([9]; Preemergence, Rate 250 g/ha): 0
- Rape plant response rating ([9]; Preemergence, Rate 500 g/ha): 0
- Rape plant response rating ([9]; Rate 62 g/ha, Postemergence): 0
- Plant response rating, Rape [9, 20]: 6
- Plant response rating, Soybean [10, 17]: 2
- Plant response rating, Soybean [10, 18]: 2
- Plant response rating, Soybean [10, 19]: 0
- Soybean plant response rating (0 to 10 scale) ([10]; Preemergence, Rate 125 g/ha): 0
- Soybean plant response rating ([10]; Preemergence, Rate 250 g/ha): 0
- Soybean plant response rating ([10]; Preemergence, Rate 500 g/ha): 0
- Soybean plant response rating ([10]; Rate 62 g/ha, Postemergence): 1
- Plant response rating, Soybean [10, 20]: 2
- Plant response rating, Velvetleaf [11, 17]: 0
- Plant response rating, Velvetleaf [11, 18]: 0
- Plant response rating, Velvetleaf [11, 19]: 0
- Velvetleaf plant response rating (0 to 10 scale) ([11]; Preemergence, Rate 125 g/ha): 0
- Velvetleaf plant response rating ([11]; Preemergence, Rate 250 g/ha): 0
- Velvetleaf plant response rating ([11]; Preemergence, Rate 500 g/ha): 0
- Velvetleaf plant response rating ([11]; Rate 62 g/ha, Postemergence): 0
- Plant response rating, Velvetleaf [11, 20]: 0
- Plant response rating, Wheat [12, 17]: 0
- Plant response rating, Wheat [12, 18]: 0
- Plant response rating, Wheat [12, 19]: 0
- Wheat plant response rating (0 to 10 scale) ([12]; Preemergence, Rate 125 g/ha): 0
- Wheat plant response rating ([12]; Preemergence, Rate 250 g/ha): 0
- Wheat plant response rating ([12]; Preemergence, Rate 500 g/ha): 0
- Wheat plant response rating ([12]; Rate 62 g/ha, Postemergence): 0
- Plant response rating, Wheat [12, 20]: 0
- Plant response rating, Wild oats [13, 17]: 0
- Plant response rating, Wild oats [13, 18]: 0
- Plant response rating, Wild oats [13, 19]: 0
- Wild oats plant response rating (0 to 10 scale) ([13]; Preemergence, Rate 125 g/ha): 0
- Wild oats plant response rating ([13]; Preemergence, Rate 250 g/ha): 0
- Wild oats plant response rating ([13]; Preemergence, Rate 500 g/ha): 0
- Wild oats plant response rating ([13]; Rate 62 g/ha, Postemergence): 0
- Plant response rating, Wild oats [13, 20]: 0
- Plant response rating, Nutsedge [14, 17]: 0
- Plant response rating, Nutsedge [14, 18]: 0
- Plant response rating, Nutsedge [14, 19]: 0
- Nutsedge plant response rating (0 to 10 scale) ([14]; Preemergence, Rate 125 g/ha): 0
- Nutsedge plant response rating ([14]; Preemergence, Rate 250 g/ha): 0
- Nutsedge plant response rating ([14]; Preemergence, Rate 500 g/ha): 0
- Nutsedge plant response rating ([14]; Rate 62 g/ha, Postemergence): 0
- Plant response rating, Nutsedge [14, 20]: 0
- Plant response rating, Rice (0 to 10 scale, 0 is no effect, 10 is complete control) [15, 21]: 0
- Rice plant response rating (0 to 10 scale, 0 is no effect, 10 is complete control) [15, 22]: 0
- Rice plant response rating [15, 23]: 0
- Rice plant response rating [15, 24]: 0
- Plant response rating, Ducksalad (0 to 10 scale, 0 is no effect, 10 is complete control) [16, 21]: 0
- Ducksalad plant response rating (0 to 10 scale, 0 is no effect, 10 is complete control) [16, 22]: 0
- Ducksalad plant response rating [16, 23]: 0
- Ducksalad plant response rating [16, 24]: 0
